In patent US20260151391A1, “TREATMENT OF MITOCHONDRIAL DISEASES WITH sGC STIMULATORS” (Tisento Therapeutics Inc., priority 2022, published 2026):

System: sGC
Assay: cGMP neuronal cell-based assay (rat primary neurons)
Details: rat primary hippocampal neurons, DETA-NO 10 μM or 30 μM, cGMP by LC-MS/MS; I-20 and I-14: average of free acid and sodium salt; read-out: sGC Neuron EC50
Description: Rat primary neurons were isolated from fetuses of 18-day pregnant Sprague-Dawley females. The fetuses were collected in Hanks' balanced salt solution (HBSS) and brains were rapidly removed. The cerebral hippocampi were isolated and mechanically fragmented. Further tissue digestion was performed with 0.25% (wt/vol) trypsin solution in HBSS without Ca2+ and Mg2+ for 15 min at 37° C. After trypsination, cells were washed and resuspended in neurobasal medium supplemented with 0.5 mM L-glutamine, 12.5 uM glutamic acid, 2% B-27 and 100 U/mL penicillin, and 100 μg/mL streptomycin. Cells were plated at a density of 26×10^3 or 3×10^4 or 4×10^4 cells/well in a poly-D-lysine coated 384-well flat clear-bottom plate (Corning Cat No 354662). Cells were incubated 6-7 days at 37° C. in a humidified chamber with 5% CO2. Media was removed and cells were washed 1× with HBSS containing Ca2+ and Mg2+, and replaced with 40 uL HBSS containing 0.5 mM IBMX, and incubated for 15 minutes at 37° C. […] Following centrifugation at 4° C. for 5 minutes at 1000×g to pellet cell debris, the supernatant was aspirated to a clean plate and the samples were analyzed for cGMP content. cGMP concentrations were determined from each sample using LC-MS/MS.
Concentration response data were analyzed using a 4-parameter fit (log (agonist) vs. response-variable slope). […]

Cc1cc(F)c(Cc2nc(-c3ncc(F)c(O)n3)cn3ccnc23)cc1F [Compound I-14, 5-fluoro-2-(8-(2,5-difluoro-4-methylbenzyl)imidazo[1,2-a]pyrazin-6-yl)pyrimidin-4-ol] gave an EC50 of at most 100 nM.
